Our source for the IC50 values is patent US9056874B2, “Complement pathway modulators and uses thereof” (NOVARTIS AG, priority 2012, dated 2015).

The term IC50 denotes the point on the concentration scale where inhibition reaches its midpoint.

For one assay, the target named is factor B (Homo sapiens, UniProt P00751). Nature of the assay: factor B inhibition assay of Biological Example 1. Format: biochemical. Details: CVF-Bb complex prepared from purified cobra venom factor (1 μM), recombinant human complement factor B; made in house; host or cells: drosophila cells (factor B); E. coli (factor D used to form the complex). The note with it: IC50 (nM), assay of Biological Example 1 (Table 1).
Chain of factor B (P00751 260-764 limits assumed): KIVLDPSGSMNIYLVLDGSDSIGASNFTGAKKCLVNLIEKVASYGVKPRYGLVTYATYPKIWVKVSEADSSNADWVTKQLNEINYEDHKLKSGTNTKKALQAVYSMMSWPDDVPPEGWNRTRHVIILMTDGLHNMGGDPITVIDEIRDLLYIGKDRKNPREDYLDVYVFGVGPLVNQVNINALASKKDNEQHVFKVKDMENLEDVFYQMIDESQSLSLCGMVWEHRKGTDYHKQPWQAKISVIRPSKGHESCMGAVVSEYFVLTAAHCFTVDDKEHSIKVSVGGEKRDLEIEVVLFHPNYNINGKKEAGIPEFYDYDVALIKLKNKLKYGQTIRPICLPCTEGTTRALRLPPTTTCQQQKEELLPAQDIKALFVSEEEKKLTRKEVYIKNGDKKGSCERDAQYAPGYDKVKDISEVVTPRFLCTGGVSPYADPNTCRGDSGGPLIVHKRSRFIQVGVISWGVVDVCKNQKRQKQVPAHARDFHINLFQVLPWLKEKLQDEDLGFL
Chain of factor B (Q91132 23-649 partner limits assumed): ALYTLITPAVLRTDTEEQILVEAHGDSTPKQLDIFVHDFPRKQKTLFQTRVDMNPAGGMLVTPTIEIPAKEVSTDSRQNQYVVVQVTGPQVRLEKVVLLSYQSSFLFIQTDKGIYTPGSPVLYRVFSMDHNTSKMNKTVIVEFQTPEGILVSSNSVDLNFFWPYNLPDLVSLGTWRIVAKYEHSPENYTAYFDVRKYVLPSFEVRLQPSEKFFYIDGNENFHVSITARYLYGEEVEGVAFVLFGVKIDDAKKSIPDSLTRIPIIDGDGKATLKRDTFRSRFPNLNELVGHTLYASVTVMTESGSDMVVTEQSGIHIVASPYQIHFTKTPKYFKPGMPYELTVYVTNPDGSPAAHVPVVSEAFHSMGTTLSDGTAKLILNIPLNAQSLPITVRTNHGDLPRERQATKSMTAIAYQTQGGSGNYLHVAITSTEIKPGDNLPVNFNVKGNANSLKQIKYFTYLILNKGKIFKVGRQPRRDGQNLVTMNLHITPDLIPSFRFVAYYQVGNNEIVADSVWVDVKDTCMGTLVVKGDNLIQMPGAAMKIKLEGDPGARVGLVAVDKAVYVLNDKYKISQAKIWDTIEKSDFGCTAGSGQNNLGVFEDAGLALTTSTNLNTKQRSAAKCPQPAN
Chain of factor B (Q91132 733-984 partner limits assumed): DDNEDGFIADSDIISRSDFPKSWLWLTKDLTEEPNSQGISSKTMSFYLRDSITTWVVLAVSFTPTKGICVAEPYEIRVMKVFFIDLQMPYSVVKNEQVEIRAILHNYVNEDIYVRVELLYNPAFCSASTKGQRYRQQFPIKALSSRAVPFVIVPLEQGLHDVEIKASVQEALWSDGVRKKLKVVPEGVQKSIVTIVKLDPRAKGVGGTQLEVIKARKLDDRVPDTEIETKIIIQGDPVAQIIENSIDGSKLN
Chain of factor B (Q91132 1264-1642 partner limits assumed): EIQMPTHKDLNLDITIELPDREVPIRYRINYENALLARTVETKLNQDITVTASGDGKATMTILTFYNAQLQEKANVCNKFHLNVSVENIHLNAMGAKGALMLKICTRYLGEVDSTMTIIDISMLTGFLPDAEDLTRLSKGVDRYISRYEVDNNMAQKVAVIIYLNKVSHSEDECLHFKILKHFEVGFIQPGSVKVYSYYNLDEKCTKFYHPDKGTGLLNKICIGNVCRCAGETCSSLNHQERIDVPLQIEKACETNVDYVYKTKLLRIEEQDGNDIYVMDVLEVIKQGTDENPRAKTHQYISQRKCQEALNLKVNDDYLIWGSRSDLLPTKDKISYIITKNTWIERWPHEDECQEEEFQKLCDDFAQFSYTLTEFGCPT
For `CCc1cc(C)c2[nH]cc(C#N)c2c1C(OC)c1nc2cc(C#N)ccc2[nH]1` (single isomer, unassigned; (-)) [Example 91, (−)-2-((3-Cyano-5-ethyl-7-methyl-1H-indol-4-yl)(methoxy)methyl)-1H-benzo[d]imidazole-5-carbonitrile], the IC50 amounted to 420 nM.

As for `Cc1cc(C)c2[nH]ccc2c1C(O)(c1nc2cc(C#N)ccc2[nH]1)C1CC1` (centres unmarked) [79-H a)], the IC50 was determined as 110 nM.

Take `Cc1cc(C(C)C)c(C(C)(N)c2nc3cc(C#N)ccc3[nH]2)c2cc[nH]c12` (centres unmarked) [102-E a)]: the IC50 was 60 nM.

On to `COc1cc(C)c2[nH]ccc2c1Cc1nc2cc(C#N)ccc2[nH]1` [Example 20-C, 2-((5-Methoxy-7-methyl-1H-indol-4-yl)methyl)-1H-benzo[d]imidazole-5-carbonitrile], for which the IC50 turned out to be 60 nM.

Consider `[2H]C([2H])([2H])Oc1cc(C)c2[nH]ccc2c1Cc1nc2cc(C#N)ccc2[nH]1` [Example 20-D], for which the IC50 was determined as 80 nM.

For the compound `Cc1cc(OC(C)C)c(Cc2nc3cc(C#N)ccc3[nH]2)c2cc[nH]c12` [Example 20-E], the IC50 was 670 nM.

Take `COCCOc1cc(C)c2[nH]ccc2c1Cc1nc2cc(C#N)ccc2[nH]1` [Example 20-F]: the IC50 was determined as 5570 nM.

In the case of `COc1cc(C)c2[nH]ccc2c1Cc1nc2cc(C#N)ccc2o1` [Example 20-G], the IC50 came out at 120 nM.

With `COc1cc(C)c2[nH]ccc2c1Cc1nc2ccc(C#N)cc2o1` [Example 20-H], the IC50 was determined as 4370 nM.

As for `COc1cc(F)c2[nH]ccc2c1Cc1nc2cc(C#N)ccc2[nH]1` [Example 21-B, 2-((7-Fluoro-5-methoxy-1H-indol-4-yl)methyl)-1H-benzo[d]imidazole-5-carbonitrile], the IC50 is 3140 nM.

`[2H]C([2H])([2H])Oc1cc(Cl)c2[nH]ccc2c1Cc1nc2cc(C#N)ccc2[nH]1` [Example 22, 2-((7-Chloro-5-(^2H3)methoxy-1H-indol-4-yl)methyl)-1H-benzo[d]imidazole-5-carbonitrile]: the IC50 turned out to be 1140 nM.

In the case of `[2H]C([2H])([2H])Oc1cc(Cl)c2[nH]ccc2c1C(O)c1nc2cc(C#N)ccc2[nH]1` (centres unmarked) [Example 24-E], the IC50 is 1110 nM.

Turning to `COc1cc(C)c2[nH]ccc2c1C(=O)c1nc2cc(C#N)ccc2[nH]1` [Example 25-B, 2-(5-Methoxy-7-methyl-1H-indole-4-carbonyl)-1H-benzo[d]imidazole-5-carbonitrile], the IC50 turned out to be 810 nM.

In the case of `COC(C)(c1nc2cc(C#N)ccc2[nH]1)c1c(OC(C)C)cc(C)c2[nH]ccc12` (centres unmarked) [Example 27-C], the IC50 worked out at 90 nM.

For the compound `COc1cc(C)c2[nH]ccc2c1C(OC)(c1nc2cc(C#N)ccc2[nH]1)C1CC1` (centres unmarked) [Example 27-D], the IC50 was found to be 20 nM.

Turning to `Cc1cc(OC(C)C)c(C(O)(c2nc3cc(C#N)ccc3[nH]2)C(F)(F)F)c2cc[nH]c12` (centres unmarked) [Example 33-D], the IC50 came out at 310 nM.

Regarding `Cc1cc(C)c2[nH]ccc2c1Cc1nc2cc(C#N)ccc2[nH]1` [Example 58-C, 2-((5,7-Dimethyl-1H-indol-4-yl)methyl)-1H-benzo[d]imidazole-5-carbonitrile], the IC50 was 200 nM.

As for `Cc1cc(CO)c(Cc2nc3cc(C#N)ccc3[nH]2)c2cc[nH]c12` [Example 59-C, 2-((5-(Hydroxymethyl)-7-methyl-1H-indol-4-yl)methyl)-1H-benzo[d]imidazole-5-carbonitrile], the IC50 turned out to be 1760 nM.

As for `Cc1cc(CN)c(Cc2nc3cc(C#N)ccc3[nH]2)c2cc[nH]c12` [Example 60-B, 2-((5-(Aminomethyl)-7-methyl-1H-indol-4-yl)methyl)-1H-benzo[d]imidazole-5-carbonitrile], the IC50 worked out at 5780 nM.

Consider `CC(=O)NCc1cc(C)c2[nH]ccc2c1Cc1nc2cc(C#N)ccc2[nH]1` [Example 61, N-((4-((5-cyano-1H-benzo[d]imidazol-2-yl)methyl)-7-methyl-1H-indol-5-yl)methyl)acetamide], for which the IC50 amounted to 6620 nM.

`Cc1cc(C)c2[nH]ccc2c1Cc1nc2cc(C#N)cc(F)c2[nH]1` [Example 62-B, 2-((5,7-Dimethyl-1H-indol-4-yl)methyl)-7-fluoro-1H-benzo[d]imidazole-5-carbonitrile]: the IC50 was 7610 nM.

As for `CCc1cc(C)c2[nH]ccc2c1Cc1nc2cc(C#N)ccc2[nH]1` [Example 63-A], the IC50 was 160 nM.

Regarding `Cc1cc(Cl)c(Cc2nc3cc(C#N)ccc3[nH]2)c2cc[nH]c12` [Example 63-B], the IC50 stood at 260 nM.

On to `C=Cc1cc(C)c2[nH]ccc2c1Cc1nc2cc(C#N)ccc2[nH]1` [Example 63-C], for which the 50% inhibitory concentration (IC50) was determined as 90 nM.

As for `COCc1cc(C)c2[nH]ccc2c1Cc1nc2cc(C#N)ccc2[nH]1` [Example 63-D], the IC50 was determined as 1100 nM.

For the compound `Cc1cc(C)c2[nH]ccc2c1Cc1nc2c(C)c(C#N)ccc2[nH]1` [Example 63-E], the IC50 came out at 320 nM.

As to `Cc1cc(C)c2[nH]ccc2c1Cc1nc2cc(C#N)cc(C)c2[nH]1` [Example 63-F], the IC50 was above 100000 nM.

As for `Cc1cc(C)c2[nH]ccc2c1Cc1nc2cc(C#N)c(F)cc2[nH]1` [Example 63-G], the IC50 came to 5550 nM.

As to `Cc1cc(C)c2[nH]ccc2c1Cc1nc2cc(C#N)c(Cl)cc2[nH]1` [Example 63-I], the IC50 worked out at 72600 nM.

In the case of `COc1cc2[nH]c(Cc3c(C)cc(C)c4[nH]ccc34)nc2cc1C#N` [Example 63-J], the IC50 was 83200 nM.

As for `Cc1cc(C2CC2)c(C(O)c2nc3cc(C#N)ccc3[nH]2)c2cc[nH]c12` (centres unmarked) [Example 67-B], the half-inhibitory concentration (IC50) is 260 nM.

For `Cc1cc(Br)c(C(O)c2nc3cc(C#N)ccc3[nH]2)c2cc[nH]c12` (centres unmarked) [Example 67-F], the IC50 came to 2000 nM.

As for `Cc1cc(C2CC2)c(C(O)c2nc3cc(C#N)c(F)cc3[nH]2)c2cc[nH]c12` (centres unmarked) [Example 67-H], the IC50 turned out to be 1930 nM.

Take `CCc1cc(C)c2[nH]ccc2c1C(=O)c1nc2cc(C#N)ccc2[nH]1` [Example 78, 2-(5-Ethyl-7-methyl-1H-indole-4-carbonyl)-1H-benzo[d]imidazole-5-carbonitrile]: the IC50 was determined as 640 nM.

In the case of `CCC(O)(c1nc2cc(C#N)ccc2[nH]1)c1c(C)cc(C)c2[nH]ccc12` (centres unmarked) [Example 79-G], the IC50 turned out to be 190 nM.

With `Cc1cc(C)c2[nH]ccc2c1C(O)(c1ccccc1)c1nc2cc(C#N)ccc2[nH]1` (centres unmarked) [Example 79-I], the IC50 came out at 660 nM.

Regarding `Cc1cc(C)c2[nH]cc(Br)c2c1Cc1nc2cc(C#N)ccc2[nH]1` [Example 85, 2-((3-bromo-5,7-dimethyl-1H-indol-4-yl)methyl)-1H-benzo[d]imidazole-5-carbonitrile], the IC50 is 220 nM.

With `Cc1cc(C)c2[nH]cc(Cl)c2c1Cc1nc2cc(C#N)ccc2[nH]1` [Example 86, 2-((3-Chloro-5,7-dimethyl-1H-indol-4-yl)methyl)-1H-benzo[d]imidazole-5-carbonitrile], the IC50 is 270 nM.

With `CCc1cc(C)c2[nH]cc(C#N)c2c1Cc1nc2cc(C#N)ccc2[nH]1` [Example 90, 2-((3-Cyano-5-ethyl-7-methyl-1H-indol-4-yl)methyl)-1H-benzo[d]imidazole-5-carbonitrile], the IC50 came out at 110 nM.

`Cc1cc(Cl)c2[nH]ccc2c1Cc1nc2cc(C#N)ccc2[nH]1` [Example 110-K, 2-((7-Chloro-5-methyl-1H-indol-4-yl)methyl)-1H-benzo[d]imidazole-5-carbonitrile]: the IC50 is 3330 nM.

Take `CCc1cc(C)c(Cc2nc3cc(C#N)ccc3[nH]2)c2cc[nH]c12` [Example 111-E, 2-((7-Ethyl-5-methyl-1H-indol-4-yl)methyl)-1H-benzo[d]imidazole-5-carbonitrile]: the IC50 was determined as 22900 nM.

For the compound `Cc1cc(Br)c2[nH]ccc2c1Cc1nc2cc(C#N)ccc2[nH]1` [Example 112-E, 2-((7-Bromo-5-methyl-1H-indol-4-yl)methyl)-1H-benzo[d]imidazole-5-carbonitrile], the IC50 is 4150 nM.

Take `Cc1cc(CO)c2[nH]ccc2c1Cc1nc2cc(C#N)ccc2[nH]1` [Example 113-F, 2-((7-(Hydroxymethyl)-5-methyl-1H-indol-4-yl)methyl)-1H-benzo[d]imidazole-5-carbonitrile]: the IC50 worked out at 9600 nM.

In the case of `C=C(c1nc2cc(C#N)ccc2[nH]1)c1c(CC)cc(C)c2[nH]ccc12` [Example 114-C, 2-(1-(5-Ethyl-7-methyl-1H-indol-4-yl)vinyl)-1H-benzo[d]imidazole-5-carbonitrile], the IC50 came out at 70 nM.

Take `C=C(c1nc2cc(C#N)ccc2[nH]1)c1c(OC)cc(C)c2[nH]ccc12` [Example 115, 2-(1-(5-Methoxy-7-methyl-1H-indol-4-yl)vinyl)-1H-benzo[d]imidazole-5-carbonitrile]: the IC50 worked out at 30 nM.

In the case of `CCc1cc(C)c2[nH]cc(-c3ccn[nH]3)c2c1Cc1nc2cc(C#N)ccc2[nH]1` [Example 116-F, 2-((5-Ethyl-7-methyl-3-(1H-pyrazol-5-yl)-1H-indol-4-yl)methyl)-1H-benzo[d]imidazole-5-carbonitrile], the IC50 is 190 nM.

Regarding `COc1cc(C)c2[nH]ccc2c1C(C)(C)c1nc2cc(C#N)ccc2[nH]1` [Example 122-C, 2-(2-(5-Methoxy-7-methyl-1H-indol-4-yl)propan-2-yl)-1H-benzo[d]imidazole-5-carbonitrile], the IC50 came to 5 nM.

`Cc1cc(C)c2c(c1Cc1nc3cc(C#N)ccc3[nH]1)CCN2` [Example 123, 2-((5,7-Dimethylindolin-4-yl)methyl)-1H-benzo[d]imidazole-5-carbonitrile]: the IC50 is 920 nM.

Staying with this assay, now noted: assay of Biological Example 1 (Table 1), read-out: IC50.
As to “(+) or (−)-2-(1-methoxy-1-(7-methyl-5-(methylsulfonyl)-1H-indol-4-yl)ethyl)-1H-benzo[d]imidazole-5-carbonitrile [12-B b) (tr = 3.5 min)]”, the IC50 came to 13800 nM.

Turning to “(−) or (+)-2-(1-methoxy-1-(7-methyl-5-(methylsulfonyl)-1H-indol-4-yl)ethyl)-1H-benzo[d]imidazole-5-carbonitrile [12-B b) (tr = 6.1 min)]”, the IC50 worked out at 600 nM.
